From publication PMC3747428, “Asymmetry of the Active Site Loop Conformation between Subunits of Glutamate-1-semialdehyde Aminomutase in Solution” (BioMed Research International, 2013)

Tests used:
[1] = target: T1, Glutamate-1-semialdehyde aminomutase (GSAM) from Synechococcus (Synechococcus elongatus, UniProt P24630); assay: half-transamination converting native enzyme into PLP form, followed by gel filtration and absorbance; assay type: biochemical; settings: substrate analogue, 20 mM; 100 mM Na-Tricine pH 7.9
T1 construct: gene hemL; homodimer; mobile loop residues 153-181; Trp53 and Trp67
T1 sequence (P24630 2-433): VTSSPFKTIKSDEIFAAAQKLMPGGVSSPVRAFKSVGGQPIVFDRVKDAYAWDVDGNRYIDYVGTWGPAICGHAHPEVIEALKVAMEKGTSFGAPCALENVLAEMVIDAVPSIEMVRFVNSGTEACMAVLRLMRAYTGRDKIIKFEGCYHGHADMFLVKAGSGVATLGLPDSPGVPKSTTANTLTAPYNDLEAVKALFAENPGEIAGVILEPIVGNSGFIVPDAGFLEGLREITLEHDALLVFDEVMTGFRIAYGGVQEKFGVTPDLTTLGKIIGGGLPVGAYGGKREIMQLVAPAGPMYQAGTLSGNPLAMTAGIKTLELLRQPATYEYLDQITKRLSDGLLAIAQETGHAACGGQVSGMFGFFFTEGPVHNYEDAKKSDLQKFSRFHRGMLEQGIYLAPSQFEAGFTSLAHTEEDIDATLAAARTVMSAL

[2] = target: T1, Glutamate-1-semialdehyde aminomutase (GSAM) from Synechococcus; assay: half-transamination converting native enzyme into PMP form, followed by gel filtration and absorbance; assay type: biochemical; settings: reaction intermediate, racemic, 5 mM; 100 mM Na-Tricine pH 7.9

| SMILES | half-transamination converting native enzyme into PLP form, followed by gel filt [1] | half-transamination converting native enzyme into PMP form, followed by gel filt [2] |
| --- | --- | --- |
| O=CCCC(=O)O [succinic semialdehyde] | PLP-GSAM), obtained by treating the native enzyme with succinic-1-semialdehyde | – |
| NCC(N)CCC(=O)O (racemic) [DAVA, 4,5-diaminovalerate] | – | the PMP form (PMP-GSAM), obtained by the addition of DAVA |
